Test results as given in PubChem BioAssay AID256 (DTP/NCI, 2004).
“And” between values parts separate entries of the source, which are not always exact repeats. Identical values can stand only once. Inconclusive results and toxic doses are left out. Rule for the calls: active = survival T/C of 150% or more; inactive = T/C below 125% in these data.

Test system: CD2F1 mice, L1210 leukemia ip, survival T/C
Assay: NCI In Vivo Anticancer Drug Screen. Data for tumor model L1210 Leukemia (intraperitoneal) in CD2F1 (CDF1) mice
Details: higher = longer survival
Experimental: The antitumor activity of compounds was measured in mice bearing transplantable tumors. Survival or tumor size were measured and the results are expressed as the measurement made in the treated group (T) divided by the measurement made in the vehicle treated control group (C). The tumor model used in this assay is L1210 Leukemia (intraperitoneal) in CD2F1 (CDF1) mice

[1] = endpoint: mean survival time, dose: 12.5 mg/kg/injection, schedule: Q01DX009 (ip), vehicle: saline with Tween-80
[2] = endpoint: mean survival time, dose: 25.0 mg/kg/injection, schedule: Q01DX009 (ip), vehicle: saline with Tween-80
[3] = endpoint: mean survival time, dose: 50.0 mg/kg/injection, schedule: Q04DX002 (ip), vehicle: saline with Tween-80
[4] = endpoint: mean survival time, dose: 100.0 mg/kg/injection, schedule: Q04DX002 (ip), vehicle: saline with Tween-80
[5] = endpoint: mean survival time, dose: 100.0 mg/kg/injection, schedule: Q04DX003 (ip), vehicle: saline with Tween-80
[6] = endpoint: mean survival time, dose: 200.0 mg/kg/injection, schedule: Q04DX003 (ip), vehicle: saline with Tween-80
[7] = endpoint: mean survival time, dose: 400.0 mg/kg/injection, schedule: Q04DX003 (ip), vehicle: saline with Tween-80
[8] = endpoint: mean survival time, dose: 100.0 mg/kg/injection, schedule: Q01DX009 (ip), vehicle: saline with Tween-80
[9] = endpoint: mean survival time, dose: 200.0 mg/kg/injection, schedule: Q01DX009 (ip), vehicle: saline with Tween-80
[10] = endpoint: mean survival time, dose: 400.0 mg/kg/injection, schedule: Q01DX009 (ip), vehicle: saline with Tween-80
[11] = endpoint: mean survival time, dose: 200.0 mg/kg/injection, schedule: Q04DX002 (ip), vehicle: saline with Tween-80
[12] = endpoint: mean survival time, dose: 25.0 mg/kg/injection, schedule: Q04DX003 (ip), vehicle: saline with Tween-80
[13] = endpoint: mean survival time, dose: 50.0 mg/kg/injection, schedule: Q04DX003 (ip), vehicle: saline with Tween-80

Measured: T/C

CCc1ccc(OC2OC(CO)C(OC3OC(CO)C(O)C(O)C3O)C(O)C2O)cc1 (centres undefined)
inactive: endpoint: mean survival time, dose: 75.0 mg/kg/injection, schedule: Q01DX001 (ip), vehicle: steriod suspending solution 92 % of control | endpoint: mean survival time, dose: 150.0 mg/kg/injection, schedule: Q01DX001 (ip), vehicle: steriod suspending solution 92 % of control | endpoint: mean survival time, dose: 300.0 mg/kg/injection, schedule: Q01DX001 (ip), vehicle: steriod suspending solution 95 % of control

O=[N+]([O-])c1cccc2ccccc12
inactive: endpoint: mean survival time, dose: 100.0 mg/kg/injection, schedule: Q04DX003 (ip), vehicle: saline 101 % of control | endpoint: mean survival time, dose: 200.0 mg/kg/injection, schedule: Q04DX003 (ip), vehicle: saline 103 % of control | endpoint: mean survival time, dose: 400.0 mg/kg/injection, schedule: Q04DX003 (ip), vehicle: saline 86 % of control

NC1CCC(CCCC2CCCC2)CC1 (centres undefined)
inactive: endpoint: mean survival time, dose: 6.25 mg/kg/injection, schedule: Q01DX009 (ip), vehicle: saline with Tween-80 102 % of control | [1] 98 % of control | [2] 102 % of control

Brc1ccc2c(c1)-c1ccccc1C2Br (centres undefined)
inactive: endpoint: mean survival time, dose: 62.5 mg/kg/injection, schedule: Q04DX003 (ip), vehicle: saline with Tween-80 107 % of control | endpoint: mean survival time, dose: 125.0 mg/kg/injection, schedule: Q04DX003 (ip), vehicle: saline with Tween-80 109 % of control | endpoint: mean survival time, dose: 250.0 mg/kg/injection, schedule: Q04DX003 (ip), vehicle: saline with Tween-80 98 % of control

CCCCOP(=O)(N=C=S)OCCCC
inactive: endpoint: mean survival time, dose: 25.0 mg/kg/injection, schedule: Q04DX002 (ip), vehicle: saline with Tween-80 94 % of control | [3] 102 % of control | [4] 90 % of control and 96 % of control

COC(=O)C1C2CCc3cc(OC)ccc3C2CC(=O)C1(C)C(=O)OC (centres undefined)
inactive: endpoint: mean survival time, dose: 100.0 mg/kg/injection, schedule: Q04DX003 (sc), vehicle: steriod suspending solution 103 % of control | endpoint: mean survival time, dose: 200.0 mg/kg/injection, schedule: Q04DX003 (sc), vehicle: steriod suspending solution 95 % of control | endpoint: mean survival time, dose: 400.0 mg/kg/injection, schedule: Q04DX003 (sc), vehicle: steriod suspending solution 104 % of control

O=C1C2=C(Nc3cc([N+](=O)[O-])ccc3N2)OC1c1ccccn1 (centres undefined)
inactive: endpoint: median survival time, dose: 25.0 mg/kg/injection, schedule: Q01DX005 (ip), vehicle: Klucel (hydroxypropylcellulose) (HPC) 102 % of control | endpoint: median survival time, dose: 50.0 mg/kg/injection, schedule: Q01DX005 (ip), vehicle: Klucel (hydroxypropylcellulose) (HPC) 108 % of control | endpoint: median survival time, dose: 100.0 mg/kg/injection, schedule: Q01DX005 (ip), vehicle: Klucel (hydroxypropylcellulose) (HPC) 108 % of control

Cc1c(Cc2ccccc2)[n+](=O)c2ccccc2n1[O-]
inactive: [5] 97 % of control | [6] 101 % of control | [7] 98 % of control

C[Si](C)(C)Oc1cccc(O[Si](C)(C)C)c1
inactive: [8] 92 % of control | [9] 94 % of control | [10] 87 % of control

C[CH2][Sn]1([CH2]C)[O]C2C(CO)OC(n3ccc(=O)[nH]c3=O)C2[O]1 (centres undefined)
inactive: endpoint: mean survival time, dose: 1.56 mg/kg/injection, schedule: Q01DX005 (ip), vehicle: water 103 % of control | endpoint: mean survival time, dose: 3.13 mg/kg/injection, schedule: Q01DX005 (ip), vehicle: water 102 % of control | endpoint: mean survival time, dose: 6.25 mg/kg/injection, schedule: Q01DX005 (ip), vehicle: water 96 % of control | endpoint: mean survival time, dose: 12.5 mg/kg/injection, schedule: Q01DX005 (ip), vehicle: other 104 % of control

COc1ccc(OC)c(C=NCCN=Cc2cc(OC)ccc2OC)c1
inactive: [8] 87 % of control | [5] 90 % of control | [9] 95 % of control | [6] 88 % of control | [10] 87 % of control | [7] 87 % of control

OCCCC(Sc1ccccc1)c1ccccc1 (centres undefined)
inactive: endpoint: mean survival time, dose: 75.0 mg/kg/injection, schedule: Q04DX003 (ip), vehicle: saline 91 % of control | endpoint: mean survival time, dose: 150.0 mg/kg/injection, schedule: Q04DX003 (ip), vehicle: saline 101 % of control | endpoint: mean survival time, dose: 300.0 mg/kg/injection, schedule: Q04DX003 (ip), vehicle: saline 91 % of control

CC1=CC(=O)C2C(C)(C)CCCC2(C)C1(O)CCc1ccoc1 (centres undefined)
inactive: [4] 110 % of control | [11] 103 % of control | endpoint: mean survival time, dose: 400.0 mg/kg/injection, schedule: Q04DX002 (ip), vehicle: saline with Tween-80 107 % of control

Cc1c(C)c(C)c([N+](=O)[O-])c([N+](=O)[O-])c1C
inactive: endpoint: mean survival time, dose: 50.0 mg/kg/injection, schedule: Q01DX005 (ip), vehicle: saline with Tween-80 101 % of control | endpoint: mean survival time, dose: 100.0 mg/kg/injection, schedule: Q01DX005 (ip), vehicle: saline with Tween-80 101 % of control | endpoint: mean survival time, dose: 200.0 mg/kg/injection, schedule: Q01DX005 (ip), vehicle: saline with Tween-80 101 % of control

C1CN2CN3CCN(CN1C3)C2
inactive: endpoint: mean survival time, dose: 12.5 mg/kg/injection, schedule: Q01DX009 (ip), vehicle: saline 97 % of control | endpoint: mean survival time, dose: 25.0 mg/kg/injection, schedule: Q01DX009 (ip), vehicle: saline 109 % of control | endpoint: mean survival time, dose: 50.0 mg/kg/injection, schedule: Q01DX009 (ip), vehicle: saline 105 % of control | endpoint: mean survival time, dose: 100.0 mg/kg/injection, schedule: Q01DX009 (ip), vehicle: saline 118 % of control

CC(C)(CNC1CCCCC1)OC(=O)c1ccccc1
inactive: endpoint: mean survival time, dose: 75.0 mg/kg/injection, schedule: Q01DX001 (ip), vehicle: saline 105 % of control | endpoint: mean survival time, dose: 150.0 mg/kg/injection, schedule: Q01DX001 (ip), vehicle: saline 100 % of control

Cc1ccc[n+](CCc2c[nH]c3ccccc23)c1
inactive: [1] 100 % of control | [2] 96 % of control | [12] 98 % of control | endpoint: mean survival time, dose: 50.0 mg/kg/injection, schedule: Q01DX009 (ip), vehicle: saline with Tween-80 101 % of control | [13] 95 % of control

O=C1c2ccccc2C(=O)c2c(O)c(Cc3cccnc3)cc(O)c21
inactive: endpoint: mean survival time, dose: 100.0 mg/kg/injection, schedule: Q01DX009 (ip), vehicle: saline sonified 98 % of control | endpoint: mean survival time, dose: 200.0 mg/kg/injection, schedule: Q01DX009 (ip), vehicle: saline sonified 98 % of control | endpoint: mean survival time, dose: 400.0 mg/kg/injection, schedule: Q01DX009 (ip), vehicle: saline sonified 102 % of control

C/C(=N/NC(=O)c1ccccc1)c1cccc(O)c1
inactive: [8] 89 % of control | [5] 94 % of control | [6] 90 % of control | [10] 103 % of control | [7] 97 % of control

CC12CC(C(=O)O)C3(O)CC(C)(C1)CC(C)(C2)C3 (centres undefined) (tested in a mixture with another compound)
inactive: endpoint: mean survival time, dose: 12.5 mg/kg/injection, schedule: Q01DX009 (ip), vehicle: Klucel (hydroxypropylcellulose) (HPC) 95 % of control and 107 % of control | endpoint: mean survival time, dose: 25.0 mg/kg/injection, schedule: Q01DX009 (ip), vehicle: Klucel (hydroxypropylcellulose) (HPC) 101 % of control and 109 % of control | endpoint: mean survival time, dose: 50.0 mg/kg/injection, schedule: Q01DX009 (ip), vehicle: Klucel (hydroxypropylcellulose) (HPC) 87 % of control and 107 % of control | endpoint: mean survival time, dose: 100.0 mg/kg/injection, schedule: Q01DX009 (ip), vehicle: Klucel (hydroxypropylcellulose) (HPC) 98 % of control and 110 % of control | endpoint: mean survival time, dose: 200.0 mg/kg/injection, schedule: Q01DX009 (ip), vehicle: Klucel (hydroxypropylcellulose) (HPC) 101 % of control and 104 % of control | endpoint: mean survival time, dose: 400.0 mg/kg/injection, schedule: Q01DX009 (ip), vehicle: Klucel (hydroxypropylcellulose) (HPC) 98 % of control

O=[N+]([O-])c1ccc(S(=O)Cc2ccccc2)c([N+](=O)[O-])c1 (centres undefined)
inactive: endpoint: mean survival time, dose: 75.0 mg/kg/injection, schedule: Q01DX001 (ip), vehicle: other 100 % of control

COc1ccc2c(c1)CCC(c1ccccc1)=C2c1ccc(OCCN2CCCC2)cc1
inactive: endpoint: mean survival time, dose: 6.0 mg/kg/injection, schedule: Q01DX009 (ip), vehicle: saline with Tween-80 103 % of control | endpoint: mean survival time, dose: 12.0 mg/kg/injection, schedule: Q01DX009 (ip), vehicle: saline with Tween-80 106 % of control | endpoint: mean survival time, dose: 24.0 mg/kg/injection, schedule: Q01DX009 (ip), vehicle: saline with Tween-80 101 % of control | endpoint: mean survival time, dose: 40.0 mg/kg/injection, schedule: Q04DX003 (ip), vehicle: saline with Tween-80 104 % of control | endpoint: mean survival time, dose: 80.0 mg/kg/injection, schedule: Q04DX003 (ip), vehicle: saline with Tween-80 101 % of control

CC(=O)Nc1c(C#N)c(C#N)nn1C
inactive: [3] 98 % of control | [4] 106 % of control | [11] 102 % of control

O=C1CC2CCC1C2Cl (centres undefined)
inactive: endpoint: mean survival time, dose: 6.25 mg/kg/injection, schedule: Q04DX003 (ip), vehicle: saline with Tween-80 101 % of control | endpoint: mean survival time, dose: 12.5 mg/kg/injection, schedule: Q04DX003 (ip), vehicle: saline with Tween-80 113 % of control | [12] 97 % of control | [13] 97 % of control
